Our source for the IC50 values is patent publication US9212130B2, “Heterocyclic derivative and pharmaceutical composition comprising the same” (SHIONOGI & CO., LTD., priority 2010, dated 2015).

For this assay, the target named is human P2X3 receptor (Homo sapiens (Human), UniProt P56373). Put plainly: Evaluation of human P2X3 receptor inhibitory activity (ATP-induced Fluo-3 fluorescence, FDSS 3000). The assay is classed as cell-based. The settings on record: C6BU-1 cell transfected with human P2X3 receptor gene. The protocol:
The plate was placed in High-Throughput Screening System FDSS 3000 (Hamamatsu Photonics K.K.). […] Five minutes after, 50 nM ATP solution (50 μL) prepared by dilution with the dilution buffer was dispensed through the built-in automatic dispenser, and the measurement of fluorescence intensity was continued for 3 min. For each well, the specific maximum fluorescence intensity was calculated as the ratio of the maximum fluorescence intensity after addition of the ATP solution to the fluorescence intensity at the starting of the measurement. […] FDSS software (Hamamatsu Photonics K.K.) was used for calculation of the specific maximum fluorescence intensity. IC50 was calculated using Microsoft Excel (Microsoft. Corporation) and XLfit (idbs Ltd.)
The aforementioned in mM, μM and nM are each means mmol/L, μmol/L and nmol/L, respectively.
In tables, μM means μmol/L.

human P2X3 receptor, sequence (P56373 whole entry): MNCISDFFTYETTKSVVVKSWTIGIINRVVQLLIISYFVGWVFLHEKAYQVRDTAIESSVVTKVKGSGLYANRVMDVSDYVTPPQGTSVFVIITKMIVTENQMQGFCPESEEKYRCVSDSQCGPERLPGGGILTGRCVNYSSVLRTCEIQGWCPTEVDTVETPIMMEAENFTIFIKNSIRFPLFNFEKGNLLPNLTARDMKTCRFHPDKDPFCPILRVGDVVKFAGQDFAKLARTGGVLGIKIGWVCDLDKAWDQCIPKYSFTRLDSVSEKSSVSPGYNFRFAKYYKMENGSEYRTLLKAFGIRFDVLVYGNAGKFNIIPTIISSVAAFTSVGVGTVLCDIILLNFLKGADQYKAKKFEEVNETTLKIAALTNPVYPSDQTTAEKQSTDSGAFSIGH

For orientation: IC50 means the concentration that gives 50% inhibition. The low end stands for greater potency in that assay, the high end for weaker potency in that assay. As for `CC(C)Oc1ccc(Nc2ncc(N(C)C(=O)OC(C)(C)C)c(=O)n2Cc2ccc(Cl)cc2)cc1F` [I-208], the IC50 turned out to be 50 nM.
With `CC(C)Oc1ccc(Nc2nc(=O)c(N3CCOCC3)cn2Cc2ccc(Cl)cc2)cc1F` [I-209], the IC50 turned out to be 397 nM. This IC50 lies about 7.9-fold higher than the previous one.
`COC(=O)[C@@H](C)Cn1c(=O)cc(Nc2ccc(OC(C)C)c(C)c2)n(Cc2ccc(Cl)cc2)c1=O` [I-212] yielded an IC50 of 37 nM.
To `COC(=O)[C@@H](C)Cn1c(=O)cc(Nc2ccc(OC(C)C)cn2)n(Cc2ccc(Cl)cc2)c1=O` [I-213] belongs 427 nM; to `COC(=O)[C@@H](C)Cn1c(=O)cc(Nc2ccc(OC(C)C)cc2)n(Cc2ccc(Cl)cc2)c1=O` [I-216], 105 nM.
As to `CC(C)Oc1ccc(Nc2cc(=O)n(C[C@H](C)C(=O)O)c(=O)n2Cc2ccc(Cl)cc2)nc1` [I-217], the half-maximal inhibitory concentration (IC50) turned out to be 453 nM. This IC50 is about 4.3-fold higher than that of the molecule before.
To `CC(C)Oc1ccc(Nc2cc(=O)n(C[C@H](C)C(=O)O)c(=O)n2Cc2ccc(Cl)cc2)cc1` [I-218] belongs 55 nM; to `CNc1cnc(Nc2ccc(OC(C)C)c(F)c2)n(Cc2ccc(Cl)cc2)c1=O` [I-222], 560 nM; to `CC(C)Oc1ccc(Nc2ncc(NCCCO)c(=O)n2Cc2ccc(Cl)cc2)cc1F` [I-223], 724 nM.
`CC(C)Oc1ccc(Nc2ncc(NCC3CCOCC3)c(=O)n2Cc2ccc(Cl)cc2)cc1F` [I-224] gave an IC50 of 511 nM.
The value for `CC(C)Oc1ccc(Nc2nc(=O)c3cc(C(F)(F)F)ccc3n2Cc2ccc(Cl)cc2)cc1Cl` [I-227, 1-(4-chlorobenzyl)-2-(3-chloro-4-isopropoxyphenylamine)-6-trifluoromethylquinazoline-4(3H)-one] was 974 nM; that for `CC(C)Oc1ccc(Nc2nc(=O)c(NC(=O)OC(C)(C)C)cn2Cc2ccc(Cl)cc2)cc1F` [I-230] was 92 nM.
On to `CC(C)Oc1ccc(Nc2ncc(NC(=O)CCC(=O)O)c(=O)n2Cc2ccc(Cl)cc2)cc1F` [I-231], for which it took 226 nM to reach half-maximal inhibition (IC50).
Consider `CC(C)Oc1ccc(Nc2ncc(CCC(=O)O)c(=O)n2Cc2ccc(Cl)cc2)cc1F` [I-232], for which the IC50 amounted to 681 nM.
To `CC(C)Oc1ccc(Nc2ncc(NC(=O)CC3CCOCC3)c(=O)n2Cc2ccc(Cl)cc2)cc1F` [I-233] belongs 49 nM.
Take `CC(C)Oc1ccc(Nc2ncc(NC(=O)C3CCOCC3)c(=O)n2Cc2ccc(Cl)cc2)cc1F` [I-234, 2-(3-fluoro-4-isopropoxyphenylamino)-3-(4-chlorobenzyl)-5-(tetrahydro-2H-pyrane-4-ylcarbonylamino)pyrimidine-4(3H)-one]: the IC50 was determined as 4 nM.
The molecule `CC(C)Oc1ccc(Nc2ncc(NC(=O)C3CCOCC3)c(=O)n2Cc2ccc(Cl)cc2)cc1` [I-235] returned an IC50 of 11 nM.
To `CC(C)Oc1ccc(Nc2ncc(NC(=O)C3CCOCC3)c(=O)n2Cc2ccc(Cl)cc2)cc1Cl` [I-236] belongs 6 nM.
`Cc1cc(Nc2ncc(NC(=O)C3CCOCC3)c(=O)n2Cc2ccc(Cl)cc2)ccc1OC(C)C` [I-237] gave an IC50 of 13 nM. This IC50 lies about 2.2-fold higher than the previous one.
The value for `CC(C)Oc1ccc(Nc2nc(=O)c(NC(=O)C3CCOCC3)cn2Cc2ccc(Cl)cc2)cc1F` [I-238] was 653 nM.
The value for `CC(C)Oc1ccc(Nc2nc(=O)c(NC=O)cn2Cc2ccc(Cl)cc2)cc1F` [I-239] was 515 nM.
Molecule `COCCC(=O)Nc1cn(Cc2ccc(Cl)cc2)c(Nc2ccc(OC(C)C)c(F)c2)nc1=O` [I-240] gave an IC50 of 417 nM.
The value for `CC(C)Oc1ccc(Nc2ncc(C(=O)NC3CCOCC3)c(=O)n2Cc2ccc(Cl)cc2)cc1F` [I-242] was 67 nM.
To `CC(C)Oc1ccc(Nc2ncc(N)c(=O)n2Cc2ccc(Cl)cc2)cc1F` [I-243] belongs 676 nM; to `O=C(Nc1cnc(Nc2ccc(Oc3cc[nH]c(=O)c3)cc2)n(Cc2ccc(Cl)cc2)c1=O)C1CCOCC1` [I-244], 2 nM; to `O=C(Nc1cnc(Nc2ccc(Oc3cncc(F)c3)cc2)n(Cc2ccc(Cl)cc2)c1=O)C1CCOCC1` [I-245], 0.8 nM.
To `CC(=O)Nc1cnc(Nc2ccc(OC(C)C)c(F)c2)n(Cc2ccc(Cl)cc2)c1=O` [I-246] belongs 106 nM; to `CC(C)Oc1ccc(Nc2ncc(NC(=O)C(C)C)c(=O)n2Cc2ccc(Cl)cc2)cc1F` [I-247], 19 nM.
`COCCC(=O)Nc1cnc(Nc2ccc(OC(C)C)c(F)c2)n(Cc2ccc(Cl)cc2)c1=O` [I-248] displayed an IC50 of 24 nM.
`COCC(=O)Nc1cnc(Nc2ccc(OC(C)C)c(F)c2)n(Cc2ccc(Cl)cc2)c1=O` [I-249] showed an IC50 of 35 nM.
In the case of `CCNC(=O)Nc1cnc(Nc2ccc(OC(C)C)c(F)c2)n(Cc2ccc(Cl)cc2)c1=O` [I-250], the IC50 was 7 nM.
Regarding `CC(C)Oc1ccc(Nc2ncc(NS(C)(=O)=O)c(=O)n2Cc2ccc(Cl)cc2)cc1F` [I-252], the IC50 was found to be 62 nM.
To `CC(C)Oc1ccc(Nc2ncc(N(S(C)(=O)=O)S(C)(=O)=O)c(=O)n2Cc2ccc(Cl)cc2)cc1F` [I-253] belongs 536 nM.
To `CC(C)Oc1ccc(Nc2ncc(NC(=O)C(=O)O)c(=O)n2Cc2ccc(Cl)cc2)cc1F` [I-254] belongs 20 nM.
To `CC(C)Oc1ccc(Nc2ncc(Br)c(=O)n2Cc2ccc(Cl)cc2)cc1F` [I-257] belongs 319 nM.
Regarding `CC(C)Oc1ccc(Nc2ncc(C(N)=O)c(=O)n2Cc2ccc(Cl)cc2)cc1F` [I-258], the IC50 came out at 47 nM.
The molecule `CC(C)Oc1ccc(Nc2ncc(C#N)c(=O)n2Cc2ccc(Cl)cc2)cc1F` [I-259] gave an IC50 of 436 nM.
The value for `CCCC(=O)Nc1cnc(Nc2ccc(OC(C)C)c(F)c2)n(Cc2ccc(Cl)cc2)c1=O` [I-260] was 15 nM.
The molecule `CCc1nc2ccc(Nc3ncc(NC(=O)C4CCOCC4)c(=O)n3Cc3ccc(Cl)cc3)cc2s1` [I-262] displayed an IC50 of 3 nM.
In turn, `Cc1nc2ccc(Nc3ncc(NC(=O)C4CCOCC4)c(=O)n3Cc3ccc(Cl)cc3)cc2s1` [I-264] registered an IC50 of 4 nM. This IC50 and that of the molecule before are within 1.5-fold of each other.
On to `Cc1ccc(Oc2ccc(Nc3ncc(NC(=O)C4CCOCC4)c(=O)n3Cc3ccc(Cl)cc3)cc2)cn1` [I-265], for which the IC50 was 1 nM.
As to `CC(C)Oc1ccc(Nc2ncc(C(=O)NNC=O)c(=O)n2Cc2ccc(Cl)cc2)cc1F` [I-266], the IC50 was found to be 55 nM.
The molecule `CC(=O)OC(C)(C)C(=O)Nc1cnc(Nc2ccc(OC(C)C)c(F)c2)n(Cc2ccc(Cl)cc2)c1=O` [I-267] registered an IC50 of 25 nM.
To `CC(C)Oc1ccc(Nc2ncc(NC(=O)C(C)(C)O)c(=O)n2Cc2ccc(Cl)cc2)cc1F` [I-268] belongs 4 nM.
The value for `CC(C)Oc1ccc(Nc2ncc(NC(=O)CCO)c(=O)n2Cc2ccc(Cl)cc2)cc1F` [I-269] was 31 nM; that for `CC(=O)N1CCC(C(=O)Nc2cnc(Nc3ccc(OC(C)C)c(F)c3)n(Cc3ccc(Cl)cc3)c2=O)CC1` [I-270] was 10 nM.
The value for `CC(C)Oc1ccc(Nc2ncc(C(=O)NNC(=O)OC(C)(C)C)c(=O)n2Cc2ccc(Cl)cc2)cc1F` [I-271] was 29 nM; that for `CC(C)Oc1ccc(Nc2ncc(C(=O)NN)c(=O)n2Cc2ccc(Cl)cc2)cc1F` [I-272] was 104 nM.
`COc1cc(C(=O)Nc2cnc(Nc3ccc(OC(C)C)c(F)c3)n(Cc3ccc(Cl)cc3)c2=O)ccn1` [I-273]: the IC50 is 95 nM.
As to `COc1ccc(C(=O)Nc2cnc(Nc3ccc(OC(C)C)c(F)c3)n(Cc3ccc(Cl)cc3)c2=O)cn1` [I-274], 66 nM corresponded to half-maximal inhibition (IC50).
For the molecule `CC(C)Oc1ccc(Nc2ncc(NC(=O)c3cc[nH]c(=O)c3)c(=O)n2Cc2ccc(Cl)cc2)cc1F` [I-275], the IC50 stood at 11 nM.
Molecule `CC(C)Oc1ccc(Nc2ncc(NC(=O)c3ccc(=O)[nH]c3)c(=O)n2Cc2ccc(Cl)cc2)cc1F` [I-276] returned an IC50 of 32 nM.
To `CC(C)Oc1ccc(Nc2ncc(NC(N)=O)c(=O)n2Cc2ccc(Cl)cc2)cc1F` [I-277] belongs 49 nM.
The value for `CC(C)Oc1ccc(Nc2ncc(NC(=O)N3CCOCC3)c(=O)n2Cc2ccc(Cl)cc2)cc1F` [I-278] was 16 nM; that for `CC(C)Oc1ccc(Nc2ncc(NC(=O)c3ccn(C)c(=O)c3)c(=O)n2Cc2ccc(Cl)cc2)cc1F` [I-279] was 139 nM; that for `Cc1nc2ccc(Nc3ncc(C)c(=O)n3Cc3ccc(Cl)cc3)cc2s1` [I-280] was 237 nM.
Molecule `CCOC(=O)c1cn(Cc2ccc(Cl)cc2)c(Nc2ccc3nc(C)sc3c2)nc1=O` [I-282] gave an IC50 of 272 nM.
The molecule `CC(C)Oc1ccc(Nc2ncc(NC(=O)C3COC(C)(C)OC3)c(=O)n2Cc2ccc(Cl)cc2)cc1F` [I-287] returned an IC50 of 23 nM.
With `CC(C)Oc1ccc(Nc2ncc(NC(=O)C(CO)CO)c(=O)n2Cc2ccc(Cl)cc2)cc1F` [I-288], the IC50 is 17 nM.
To `CC(C)Oc1ccc(Nc2ncc(NC(=O)C(C)(C)C#N)c(=O)n2Cc2ccc(Cl)cc2)cc1F` [I-290] belongs 23 nM; to `CC(=O)Nc1cnc(Nc2ccc(Oc3ccc(C)nc3)cc2)n(Cc2ccc(Cl)cc2)c1=O` [I-291], 43 nM.
`Cc1ccc(Oc2ccc(Nc3ncc(N)c(=O)n3Cc3ccc(Cl)cc3)cc2)cn1` [I-292] returned an IC50 of 433 nM.
The value for `CC(=O)OC(C)(C)C(=O)Nc1cnc(Nc2ccc(Oc3ccc(C)nc3)cc2)n(Cc2ccc(Cl)cc2)c1=O` [I-293] was 14 nM; that for `Cc1ccc(Oc2ccc(Nc3ncc(NC(=O)C4COC(C)(C)OC4)c(=O)n3Cc3ccc(Cl)cc3)cc2)cn1` [I-294] was 9 nM; that for `Cc1ccc(Oc2ccc(Nc3ncc(NC(=O)C(C)(C)O)c(=O)n3Cc3ccc(Cl)cc3)cc2)cn1` [I-295] was 2 nM.
`Cc1ccc(Oc2ccc(Nc3ncc(NC(=O)C(CO)CO)c(=O)n3Cc3ccc(Cl)cc3)cc2)cn1` [I-296] returned an IC50 of 7 nM.
To `CC(=O)Nc1cnc(Nc2ccc3nc(C)sc3c2)n(Cc2ccc(Cl)cc2)c1=O` [I-297] belongs 112 nM; to `Cc1ccc(Oc2ccc(Nc3ncc(NC(=O)C(CO)CO)c(=O)n3Cc3ccc(Cl)cc3)cc2)cn1` [I-298], 8 nM.
